Data taken from patent publication US9206159B2, “Piperazine-piperidine compounds as hepatitis C virus inhibitors” (Theravance Biopharma R&D IP, LLC, priority 2012, dated 2015).

Tested on: HCV genotype 1a replicon cell line
Experiment: HCV Genotype 1a Replicon Assay
Assay type: cell-based, hepatitis C virus
Conditions: Huh7.5 cell background, NS3-specific protease activity in lysates, 48 or 72 hours
Method: Assay 2: HCV Genotype 1a Replicon Assay
The HCV genotype 1a replicon cell line was obtained from Apath LLC (APC89; Huh7.5 cell background). This subgenomic replicon contains the N-terminus of the HCV core protein fused to the neomycin-resistance selectable marker. The EMCV IRES lies downstream and drives expression of the non-structural proteins NS3-NS5B. Compound potencies were determined using the NS3-specific protease activity in lysates as a measurement of compound inhibition of replicon levels.
Cells were grown at 37° C. in a 5% CO2 humidified incubator in DMEM (Invitrogen) with 10% FBS (HyClone), 1×NEAA (Invitrogen), 1× Pen-Strep (Invitrogen), and 850 μg/mL G418 (Invitrogen). On day 1 of the assay, cells were plated at 15,000 cells/well in black 96-well tissue culture plates (Costar) in 200 μL media lacking G418. Four hours later, once the cells had adhered, the media was removed and replaced with media (no G418) containing dose-responses of test compounds. Compounds were initially diluted in DMSO and then diluted another 200× in media to bring the final DMSO concentration down to 0.5%. The cells were incubated with test compounds for 48 or 72 hours. At the end of the incubation period, media and compound were removed from the plates.
To determine the NS3-specific protease activity in lysates, the cells were lysed at room temperature in 50 μL/well of 50 mM Hepes pH 7.5, 150 mM NaCl, 15% Glycerol, 0.15% Triton X-100, 10 mM DTT for 20 minutes with shaking. 50 μL of an NS3/4a protease-specific FRET substrate (Anaspec RET SI Cat#22991) was then added to the wells at a final concentration of 15 μM. The plates were incubated at 37° C. for 20 minutes, which corresponds to a timepoint at which the protease activity is still in the linear phase. Protease activity was determined by measuring fluorescence (Excitation: 340 nm; Emission: 509 nm).
To analyze the data, the fluorescence was plotted vs. the compound concentration, and EC50 values were determined from a 4-parameter robust fit model using GraphPad Prism software.

SMILES | EC50 (Hepatitis C virus, read-out: Genotype 1a (pEC50 class) (converted)) [nM] | Genotype 1a (pEC50 class)
COC(=O)N[C@H](C(=O)N1CCC[C@H]1c1nc(-c2ccc(-c3ccc(NC(=O)N4CCN(C5CCN(C(=O)C6CC6)CC5)[C@@H](C)C4)cc3OC(F)(F)F)cc2)c[nH]1)C(C)C [Example 1, ((S)-1-{(S)-2-[4-(4′-{[(S)-4-(1-Cyclopropanecarbonyl-piperidin-4-yl)-3-methyl-piperazine-1-carbonyl]-amino}-2′-trifluoromethoxy-biphenyl-4-yl)-1H-imidazol-2-yl]-pyrrolidine-1-carbonyl}-2-methyl-propyl)-carbamic acid methyl ester] | 0.1 to 1 | –
COC(=O)N[C@H](C(=O)N1CCC[C@H]1c1nc(-c2ccc(-c3ccc(NC(=O)N4CCN(C5CCN(C(=O)OCc6ccccc6)CC5)CC4)cc3)cc2)c[nH]1)C(C)C [Example 1-2] | – | B (B represents pEC50 between 8 and 9 (EC50 between 1 and 10 nM))
COC(=O)N[C@H](C(=O)N1CCC[C@H]1c1nc(-c2ccc(-c3ccc(NC(=O)N4CCN(C5CCN(C(=O)[C@H]6CC6(C)C)CC5)CC4)cc3)cc2)c[nH]1)C(C)C [Example 1-3] | – | C (C represents pEC50 between and 9 and about 10, (EC50 between 1 nM and 0.1 nM))
COC(=O)N[C@H](C(=O)N1CCC[C@H]1c1nc(-c2ccc(-c3ccc(NC(=O)N4CCN(C5CCN(C(=O)c6c[nH]cn6)CC5)CC4)cc3)cc2)c[nH]1)C(C)C [Example 1-5] | – | B (B represents pEC50 between 8 and 9 (EC50 between 1 and 10 nM))
COC(=O)N[C@H](C(=O)N1CCC(N2CCN(C(=O)Nc3ccc(-c4ccc(-c5c[nH]c([C@@H]6CCCN6C(=O)[C@@H](NC(=O)OC)C(C)C)n5)cc4)cc3)CC2)CC1)C(C)C [Example 1-6] | – | A (A represents a pEC50 value between 6 and 8 (EC50 between 1 μM and 10 nM))
CNC(=O)N1CCC(N2CCN(C(=O)Nc3ccc(-c4ccc(-c5c[nH]c([C@@H]6CCCN6C(=O)[C@@H](NC(=O)OC)C(C)C)n5)cc4)cc3)CC2)CC1 [Example 1-7] | – | B (B represents pEC50 between 8 and 9 (EC50 between 1 and 10 nM))
COC(=O)N[C@H](C(=O)N1CCC[C@H]1c1nc(-c2ccc(-c3ccc(NC(=O)N4CCN(C5CCN(C(=O)OC)CC5)CC4)cc3)cc2)c[nH]1)C(C)C [Example 1-9] | – | B (B represents pEC50 between 8 and 9 (EC50 between 1 and 10 nM))
COC(=O)N[C@H](C(=O)N1CCC[C@H]1c1nc(-c2ccc(-c3ccc(NC(=O)N4CCN(C5CCN(C(=O)C67CC8CC(CC(O)(C8)C6)C7)CC5)CC4)cc3OC(F)(F)F)cc2)c[nH]1)C(C)C [Example 1-10] | – | B (B represents pEC50 between 8 and 9 (EC50 between 1 and 10 nM))
COC(=O)N[C@H](C(=O)N1CCC[C@H]1c1nc(-c2ccc(-c3ccc(NC(=O)N4CCN(C5CCN(C(=O)C6CC7CCC6C7)CC5)CC4)cc3OC(F)(F)F)cc2)c[nH]1)C(C)C (stereo partly drawn) [Example 1-11] | – | C (C represents pEC50 between and 9 and about 10, (EC50 between 1 nM and 0.1 nM))
COC(=O)N[C@H](C(=O)N1CCC[C@H]1c1nc(-c2ccc(-c3ccc(NC(=O)N4CCN(C5CCN(C(=O)C(C)NC(N)=O)CC5)CC4)cc3OC(F)(F)F)cc2)c[nH]1)C(C)C (stereo partly drawn) [Example 1-15] | – | B (B represents pEC50 between 8 and 9 (EC50 between 1 and 10 nM))
COC(=O)N[C@H](C(=O)N1CCC[C@H]1c1nc(-c2ccc(-c3ccc(NC(=O)N4CCN(C5CCN(C(=O)C6CC6)CC5)C[C@H]4C)cc3OC(F)(F)F)cc2)c[nH]1)C(C)C [Example 1-18] | – | C (C represents pEC50 between and 9 and about 10, (EC50 between 1 nM and 0.1 nM))
COC(=O)N[C@H](C(=O)N1CCC[C@H]1c1nc(-c2ccc(-c3ccc(NC(=O)N4CCN(C5CCN(C(=O)OC(C)(C)C)CC5)C[C@H]4C)cc3OC(F)(F)F)cc2)c[nH]1)C(C)C [Example 1-19] | – | C (C represents pEC50 between and 9 and about 10, (EC50 between 1 nM and 0.1 nM))
COC(=O)N[C@H](C(=O)N1CCC[C@H]1c1nc(-c2ccc(-c3ccc(NC(=O)N4CCN(C5CCN(C(=O)c6ncccn6)CC5)CC4)cc3OC(F)(F)F)cc2)c[nH]1)C(C)C [Example 1-21] | – | B (B represents pEC50 between 8 and 9 (EC50 between 1 and 10 nM))
COC(=O)N[C@H](C(=O)N1CCC[C@H]1c1nc(-c2ccc(-c3ccc(NC(=O)N4CCN(C5CCN(C(=O)c6c[nH]cn6)CC5)CC4)cc3OC(F)(F)F)cc2)c[nH]1)C(C)C [Example 1-23] | – | C (C represents pEC50 between and 9 and about 10, (EC50 between 1 nM and 0.1 nM))
CNC(=O)N1CCC(N2CCN(C(=O)Nc3ccc(-c4ccc(-c5c[nH]c([C@@H]6CCCN6C(=O)[C@@H](NC(=O)OC)C(C)C)n5)cc4)c(OC(F)(F)F)c3)CC2)CC1 [Example 1-24] | – | C (C represents pEC50 between and 9 and about 10, (EC50 between 1 nM and 0.1 nM))
COC(=O)N[C@H](C(=O)N1CCC[C@H]1c1nc(-c2ccc(-c3cc(F)c(NC(=O)N4CCN(C5CCN(C(=O)[C@H]6CC6(C)C)CC5)CC4)cc3OC(F)(F)F)cc2)c[nH]1)C(C)C [Example 1-26] | – | C (C represents pEC50 between and 9 and about 10, (EC50 between 1 nM and 0.1 nM))
COC(=O)N[C@H](C(=O)N1CCC[C@H]1c1nc(-c2ccc(-c3cc(F)c(NC(=O)N4CCN(C5CCN(C(=O)C6CC6)CC5)CC4)cc3OC(F)(F)F)cc2)c[nH]1)C(C)C [Example 1-28] | – | C (C represents pEC50 between and 9 and about 10, (EC50 between 1 nM and 0.1 nM))
COC(=O)N[C@H](C(=O)N1CCC(N2CCN(C(=O)Nc3ccc(-c4ccc(-c5c[nH]c([C@@H]6CCCN6C(=O)[C@@H](NC(=O)OC)C(C)C)n5)cc4)c(OC(F)(F)F)c3)CC2)CC1)C(C)C [Example 1-29] | – | A (A represents a pEC50 value between 6 and 8 (EC50 between 1 μM and 10 nM))
CCN(CC)[C@@H](C(=O)N1CCC(N2CCN(C(=O)Nc3ccc(-c4ccc(-c5c[nH]c([C@@H]6CCCN6C(=O)[C@@H](NC(=O)OC)C(C)C)n5)cc4)c(OC(F)(F)F)c3)CC2)CC1)C(C)C [Example 1-30] | – | A (A represents a pEC50 value between 6 and 8 (EC50 between 1 μM and 10 nM))
CCN(CC)[C@@H](C(=O)N1CCC(N2CCN(C(=O)Nc3ccc(-c4ccc(-c5c[nH]c([C@@H]6CCCN6C(=O)[C@@H](NC(=O)OC)C(C)C)n5)cc4)c(OC(F)(F)F)c3)CC2)CC1)c1ccccc1 [Example 1-32] | – | A (A represents a pEC50 value between 6 and 8 (EC50 between 1 μM and 10 nM))
COC(=O)N[C@H](C(=O)N1CCC[C@H]1c1nc(-c2ccc(-c3cc(Cl)c(NC(=O)N4CCN(C5CCN(C(=O)C6CC6)CC5)CC4)cc3OC(F)(F)F)cc2)c[nH]1)C(C)C [Example 1-33] | – | C (C represents pEC50 between and 9 and about 10, (EC50 between 1 nM and 0.1 nM))
COC(=O)N[C@H](C(=O)N1CCC[C@H]1c1nc(-c2ccc(-c3cc(Cl)c(NC(=O)N4CCN(C5CCN(C(=O)[C@H]6CC6(C)C)CC5)CC4)cc3OC(F)(F)F)cc2)c[nH]1)C(C)C [Example 1-34] | – | C (C represents pEC50 between and 9 and about 10, (EC50 between 1 nM and 0.1 nM))
COC(=O)N[C@H](C(=O)N1CCC[C@H]1c1nc(-c2ccc(-c3cc(Cl)c(NC(=O)N4CCN(C5CCN(C(=O)OC(C)(C)C)CC5)CC4)cc3OC(F)(F)F)cc2)c[nH]1)C(C)C [Example 1-36] | – | C (C represents pEC50 between and 9 and about 10, (EC50 between 1 nM and 0.1 nM))
COC(=O)NC(C(=O)N1CCCC1c1nc(-c2ccc(-c3ccc(NC(=O)N4CCN(C5CCN(C(=O)C6CC6(C)C)CC5)C(C)C4)cc3OC(F)(F)F)cc2)c[nH]1)C(C)C (stereo not drawn) [Example 1-37] | – | B (B represents pEC50 between 8 and 9 (EC50 between 1 and 10 nM))
